Reference: paper PMC7600351 (Pharmaceutics, 2020)
Read-outs that look alike come from different tables or passages of the source. One block for each compound: values may come before it.

Tests used:
[1] = cited from earlier work
[2] = test system: CYP1A2; assay: Induction assay in LS180 cells, CYP1A2 mRNA (real-time RT-PCR); details: LS180, 4 days; hydroxychloroquine 1, 2, 10, 20 µM; omeprazole 150 µM
Experimental: (§1) For induction experiments, the human colon adenocarcinoma cell line LS180 (available at ATCC, Manassas, VA, USA) was used. This cell line is an established model for investigating gene inductions mediated by PXR or AhR [25, 28]. Cells were cultured under standard cell culture conditions in DMEM supplemented with 10% FCS, 100 U/mL penicillin, 100 µg/mL streptomycin sulphate, 0.1 mM non-essential amino acids, and 2 mM glutamine.
(§2) All media were adjusted to the DMSO content of the solution with the highest DMSO content in the respective experiment (0.1%). The experiment was conducted in quintuplicate. RNA was extracted immediately after harvesting the cells and stored at −80 °C until processing.
(§3) RNA was isolated using the GenElute™ Mammalian Total RNA Miniprep Kit, and cDNA was synthesized with the RevertAid™ H Minus First Strand cDNA Synthesis Kit according to the manufacturer’s instructions. mRNA expression was quantified by real-time RT-PCR with the LightCycler® 480 (Roche Applied Science, Mannheim, Germany) as described previously. […] Data were evaluated via calibrator-normalised relative quantification with efficiency correction using the LightCycler® 480 software version 1.5.1.62 (Roche Applied Science, Mannheim, Germany). Results were expressed as the target/reference ratio divided by the target/reference ratio of the calibrator. […]

[3] = test system: OATP2B1; details: at 10 µM; cited from earlier work
[4] = test system: OATP1B3; details: at 10 µM; cited from earlier work
[5] = biological target: T1, OATP2B1 (Homo sapiens, UniProt O94956); assay: Flow cytometric OATP2B1 inhibition assay (DBF uptake, HEK293 with tetracycline-induced OATP2B1); type: cell-based
T1 construct: expressed in transfected cells; host or cells: HEK293, tetracycline-induced OATP2B1 expression
Experimental: As a cell model for human OATP2B1, HEK293 cells over-expressing OATP2B1 in the presence of tetracycline were used. Cells were cultured under standard cell culture conditions with DMEM/Ham’s F12 medium supplemented with 10% FCS, 4 mM glutamine, 100 U/mL penicillin, and 100 µg/mL streptomycin sulphate. To generate OATP2B1 over-expression, cells were treated 72 h before the assay with 1 µg/mL tetracycline. […] Excluding debris, living cells were gated in the forward/sideward scatter by using the unstained sample. […] Uptake in cells with tetracycline induction was normalised to the uptake in cells without induction. Naringin (1 mM) was used as a positive control.

[6] = biological target: T2, human P-gp (Homo sapiens, UniProt P08183); assay: P-gp inhibition, calcein-AM uptake assay in L-MDR1 vs LLC-PK1 cells; type: cell-based; details: L-MDR1 cells and parental LLC-PK1; 0.01–100 µM; 0.5 µM calcein-AM
T2 construct: expressed in transfected cells; host or cells: L-MDR1 (derived from porcine LLC-PK1)
Experimental: (§4) P-gp inhibition was tested with a calcein assay as published previously using two different cell systems: the L-MDR1 cell line that over-expresses human P-gp and the corresponding parental cell line LLC-PK1 [19] and the P-gp over-expressing murine monocytic cell line P388/dx and its parental counterpart cell line P388 as a control. LLC-PK1 and L-MDR1 cells were cultured under standard cell culture conditions with medium M199 supplemented with 10% FCS, 2 mM glutamine, 100 U/mL penicillin, and 100 µg/mL streptomycin sulphate. […] One day before using the cells for the calcein assay, both cell lines were fed with vincristine-free culture medium. […] One day before the inhibition assay, both P388 cell lines were set to the doxorubicin-free culture medium.
(§5) In brief, the assay was performed in 96-well plates with a final calcein-AM concentration of 0.5 µM for the LLC cell system and 1 µM for the P388 cell system. Cells were washed with pre-warmed HBSS supplemented with 10 mM HEPES (HHBSS) and pre-incubated with this buffer for 30 min and subsequently with the test compound for 10 min (LLC cell system) or 15 min (P388 cell system). After pre-incubation, calcein-AM was added and the cells were incubated for 60 min (LLC system) or 30 min (P388 cell system) at 37 °C on a rotary shaker (Noctua, Vienna, Austria). […]

[7] = test system: organic cation transporters (OCTs); details: cited from earlier work
[8] = test system: OATP1A2; details: uptake of all-trans-retinol in vitro; cited from earlier work
[9] = test system: ABCB1; assay: Induction assay in LS180 cells, ABCB1 mRNA (real-time RT-PCR); type: cell-based, human; details: LS180, 4 days; hydroxychloroquine 1, 2, 10, 20 µM; rifampicin 20 µM
Experimental: as §1, §2, §3

[10] = test system: P-gp (P388/dx cells); assay: P-gp inhibition, calcein-AM uptake assay in P388/dx vs P388 cells; type: cell-based, murine; details: not in parental P388, 1 µM calcein-AM, IC50 could not be calculated
Experimental: as §4, §5

[11] = biological target: T3, OATP1B3 (Homo sapiens, UniProt Q9NPD5); assay: Flow cytometric OATP1B3 inhibition assay (8-FcA uptake, HEK-OATP1B3); type: cell-based
T3 construct: expressed in transfected cells; host or cells: HEK293 (HEK-OATP1B3)
Experimental: (§6) As cell models for human OATP1B1 and OATP1B3, HEK293, a human embryonic kidney cell line, stably transfected with OATP1B1 (HEK-OATP1B1), OATP1B3 (HEK-OATP1B3), or the empty control vector (HEK293-VC G418) were used. Cells were cultured under standard cell culture conditions with DMEM supplemented with 10% FCS, 2 mM glutamine, 100 U/mL penicillin, 100 µg/mL streptomycin sulphate, and 800 µg/mL G418. Inhibition of the OATPs was quantified by flow cytometry assessing the uptake of 8-FcA into HEK293 cells over-expressing the respective transporter after 10 min incubation and normalised to the control cell line as described previously. Intracellular fluorescence was quantified in a MACSQuant 10 Analyzer (Milteny, Bergisch-Gladbach, Germany) with the 488 nm laser for excitation and the 525 nm bandfilter for emission (FITC channel). Excluding debris, living cells were gated in the forward/sideward scatter by using the unstained sample. For each concentration (0.1–100 µM), 30,000 cells were measured and each experiment was performed in triplicate. Rifampicin (20 µM), a well-known inhibitor of OATP1B1 and OATP1B3, was used as a positive control.

[12] = test system: BCRP (substrate test by growth inhibition); assay: Growth inhibition assay (crystal violet), BCRP over-expressing MDCKII-BCRP; type: cell-based; details: dog, MDCKII-BCRP cells (MDCKII over-expressing human BCRP)
Experimental: (§7) Cell lines with overexpression of an efflux transporter are more resistant to the anti-proliferative effects of a compound if this compound is a substrate of the respective transporter and can be extruded from the cell. […] Reversal of drug resistance was tested by using the P-gp-specific inhibitor LY335979 (zosuquidar) or the BCRP-specific inhibitor FTC. The assay using crystal violet staining was conducted and analysed as described previously. Each experiment was performed at least in quadruplicate with n = 8 wells for each concentration (0.1–500 µM).

[13] = test system: MDCKII-BCRP cells (over-expressing human BCRP); assay: as above; type: cell-based; details: growth inhibition MDCKII-BCRP vs MDCKII with and without FTC
Experimental: as §7

[14] = test system: all cell lines used; assay: Cytotoxicity Detection Kit (LDH release); type: cell-based; details: up to 100 µM
Description: The toxic effects of tested compounds can negatively influence transporter inhibition assays.

[15] = test system: MDCKII cells; assay: Growth inhibition assay (crystal violet), parental MDCKII; type: cell-based; details: Canis lupus familiaris, MDCK-II
Experimental: as §7

[16] = test system: CYP1A1; assay: Induction assay in LS180 cells, CYP1A1 mRNA (real-time RT-PCR); type: cell-based, human; details: LS180, 4 days; hydroxychloroquine 1, 2, 10, 20 µM; omeprazole 150 µM
Experimental: as §1, §2, §3

[17] = test system: ABCG2; assay: Induction assay in LS180 cells, ABCG2 mRNA (real-time RT-PCR); type: cell-based, human; details: LS180, 4 days; hydroxychloroquine 1, 2, 10, 20 µM; rifampicin 20 µM; omeprazole 150 µM
Experimental: as §1, §2
RNA was isolated using the GenElute™ Mammalian Total RNA Miniprep Kit, and cDNA was synthesized with the RevertAid™ H Minus First Strand cDNA Synthesis Kit according to the manufacturer’s instructions. mRNA expression was quantified by real-time RT-PCR with the LightCycler® 480 (Roche Applied Science, Mannheim, Germany) as described previously. […] Data were evaluated via calibrator-normalised relative quantification with efficiency correction using the LightCycler® 480 software version 1.5.1.62 (Roche Applied Science, Mannheim, Germany). Results were expressed as the target/reference ratio divided by the target/reference ratio of the calibrator. The results are therefore corrected for sample inhomogeneities and variance caused by detection. All samples were amplified in duplicate and the mean of the technical duplicate was used for further calculation.

[18] = test system: LS180 cells; assay: Growth inhibition in LS180 cells (crystal violet); type: cell-based; details: Homo sapiens
Experimental: Proliferation was quantified by crystal violet staining and the assays were conducted as described previously. Each concentration was tested in octuplet and each experiment was performed in quadruplicate.

[19] = biological target: T4, OATP1B1 (Homo sapiens, UniProt Q9Y6L6); assay: Flow cytometric OATP1B1 inhibition assay (8-FcA uptake, HEK-OATP1B1); type: cell-based
T4 construct: expressed in transfected cells; host or cells: HEK293 (HEK-OATP1B1)
Experimental: as §6

[20] = test system: P-gp; design: method as in PMID 7113754; details: two case reports; cited from earlier work
[21] = test system: organic anion transporters (OATs); details: cited from earlier work
[22] = test system: LLC-PK1 cells; assay: Growth inhibition assay (crystal violet), parental LLC-PK1; type: cell-based; details: Sus scrofa
Experimental: as §7

[23] = test system: L-MDR1 cells (over-expression of human P-gp); assay: Growth inhibition assay (crystal violet), P-gp over-expressing L-MDR1; type: cell-based; details: growth inhibition L-MDR1 vs LLC-PK1 with and without LY335979
Experimental: as §7

[24] = test system: P-gp (substrate test by growth inhibition); assay: as above; type: cell-based; details: pig, L-MDR1 cells (LLC-PK1 over-expressing human P-gp)
Experimental: as §7

[25] = test system: organic cation/carnitine transporters (OCTNs); details: cited from earlier work
[26] = test system: CYP3A4
Experimental: as §1, §2, §3

[27] = 0.1–100 µM, 8-FcA uptake, 10 min

T4 sequence (Q9Y6L6 whole entry): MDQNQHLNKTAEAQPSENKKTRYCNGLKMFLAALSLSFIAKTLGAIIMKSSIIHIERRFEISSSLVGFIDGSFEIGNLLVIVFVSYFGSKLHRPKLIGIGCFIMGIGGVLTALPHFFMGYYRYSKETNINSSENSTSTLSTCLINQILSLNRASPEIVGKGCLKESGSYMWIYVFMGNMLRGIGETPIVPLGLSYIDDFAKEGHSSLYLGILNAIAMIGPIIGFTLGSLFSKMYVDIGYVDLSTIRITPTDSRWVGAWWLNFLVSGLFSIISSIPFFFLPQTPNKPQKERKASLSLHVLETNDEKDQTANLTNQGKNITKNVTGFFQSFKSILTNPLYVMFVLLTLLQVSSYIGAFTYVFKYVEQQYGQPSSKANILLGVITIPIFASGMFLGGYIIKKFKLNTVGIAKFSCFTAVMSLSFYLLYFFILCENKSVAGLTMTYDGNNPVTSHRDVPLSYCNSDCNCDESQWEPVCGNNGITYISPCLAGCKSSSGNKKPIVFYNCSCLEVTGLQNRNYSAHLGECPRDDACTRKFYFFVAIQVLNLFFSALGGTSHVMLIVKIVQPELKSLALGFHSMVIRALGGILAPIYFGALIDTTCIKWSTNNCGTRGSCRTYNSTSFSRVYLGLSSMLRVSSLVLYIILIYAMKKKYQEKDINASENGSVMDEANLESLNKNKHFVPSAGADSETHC
T1 sequence (O94956 whole entry): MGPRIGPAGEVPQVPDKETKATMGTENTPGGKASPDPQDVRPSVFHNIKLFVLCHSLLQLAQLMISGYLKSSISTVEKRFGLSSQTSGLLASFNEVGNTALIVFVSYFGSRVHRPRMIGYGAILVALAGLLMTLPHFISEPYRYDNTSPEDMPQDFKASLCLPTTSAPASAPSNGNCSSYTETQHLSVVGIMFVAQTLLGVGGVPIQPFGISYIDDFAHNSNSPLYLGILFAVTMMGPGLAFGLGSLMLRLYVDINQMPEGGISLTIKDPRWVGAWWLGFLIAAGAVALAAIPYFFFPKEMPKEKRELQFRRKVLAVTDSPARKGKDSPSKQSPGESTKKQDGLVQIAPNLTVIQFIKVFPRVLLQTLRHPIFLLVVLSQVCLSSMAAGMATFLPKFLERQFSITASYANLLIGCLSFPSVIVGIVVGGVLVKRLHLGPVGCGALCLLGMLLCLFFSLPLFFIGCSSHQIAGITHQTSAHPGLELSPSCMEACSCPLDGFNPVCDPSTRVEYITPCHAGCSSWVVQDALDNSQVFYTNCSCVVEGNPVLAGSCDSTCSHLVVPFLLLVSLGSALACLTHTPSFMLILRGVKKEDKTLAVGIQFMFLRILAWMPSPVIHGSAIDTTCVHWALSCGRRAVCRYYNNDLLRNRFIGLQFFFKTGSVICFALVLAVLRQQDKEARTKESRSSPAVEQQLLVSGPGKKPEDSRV
T3 sequence (Q9NPD5 whole entry): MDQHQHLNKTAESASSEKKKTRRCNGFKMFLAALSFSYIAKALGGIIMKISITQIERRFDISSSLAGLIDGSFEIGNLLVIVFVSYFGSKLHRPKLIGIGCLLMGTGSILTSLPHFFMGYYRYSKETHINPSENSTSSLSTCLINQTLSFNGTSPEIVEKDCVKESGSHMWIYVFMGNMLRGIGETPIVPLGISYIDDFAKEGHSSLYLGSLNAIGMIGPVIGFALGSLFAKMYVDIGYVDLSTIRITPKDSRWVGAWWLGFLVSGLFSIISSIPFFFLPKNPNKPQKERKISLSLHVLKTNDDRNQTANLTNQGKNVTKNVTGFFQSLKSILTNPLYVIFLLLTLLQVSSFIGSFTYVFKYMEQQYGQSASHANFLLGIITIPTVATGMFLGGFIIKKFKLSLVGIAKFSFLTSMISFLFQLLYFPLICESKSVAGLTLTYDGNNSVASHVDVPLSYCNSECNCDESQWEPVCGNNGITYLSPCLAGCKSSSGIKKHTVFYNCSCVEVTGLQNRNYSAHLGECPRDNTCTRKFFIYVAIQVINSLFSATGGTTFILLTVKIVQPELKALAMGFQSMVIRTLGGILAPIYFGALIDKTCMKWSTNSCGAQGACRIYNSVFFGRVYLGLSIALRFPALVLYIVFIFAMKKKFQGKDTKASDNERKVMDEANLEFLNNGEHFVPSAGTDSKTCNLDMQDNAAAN
T2 sequence (P08183 whole entry): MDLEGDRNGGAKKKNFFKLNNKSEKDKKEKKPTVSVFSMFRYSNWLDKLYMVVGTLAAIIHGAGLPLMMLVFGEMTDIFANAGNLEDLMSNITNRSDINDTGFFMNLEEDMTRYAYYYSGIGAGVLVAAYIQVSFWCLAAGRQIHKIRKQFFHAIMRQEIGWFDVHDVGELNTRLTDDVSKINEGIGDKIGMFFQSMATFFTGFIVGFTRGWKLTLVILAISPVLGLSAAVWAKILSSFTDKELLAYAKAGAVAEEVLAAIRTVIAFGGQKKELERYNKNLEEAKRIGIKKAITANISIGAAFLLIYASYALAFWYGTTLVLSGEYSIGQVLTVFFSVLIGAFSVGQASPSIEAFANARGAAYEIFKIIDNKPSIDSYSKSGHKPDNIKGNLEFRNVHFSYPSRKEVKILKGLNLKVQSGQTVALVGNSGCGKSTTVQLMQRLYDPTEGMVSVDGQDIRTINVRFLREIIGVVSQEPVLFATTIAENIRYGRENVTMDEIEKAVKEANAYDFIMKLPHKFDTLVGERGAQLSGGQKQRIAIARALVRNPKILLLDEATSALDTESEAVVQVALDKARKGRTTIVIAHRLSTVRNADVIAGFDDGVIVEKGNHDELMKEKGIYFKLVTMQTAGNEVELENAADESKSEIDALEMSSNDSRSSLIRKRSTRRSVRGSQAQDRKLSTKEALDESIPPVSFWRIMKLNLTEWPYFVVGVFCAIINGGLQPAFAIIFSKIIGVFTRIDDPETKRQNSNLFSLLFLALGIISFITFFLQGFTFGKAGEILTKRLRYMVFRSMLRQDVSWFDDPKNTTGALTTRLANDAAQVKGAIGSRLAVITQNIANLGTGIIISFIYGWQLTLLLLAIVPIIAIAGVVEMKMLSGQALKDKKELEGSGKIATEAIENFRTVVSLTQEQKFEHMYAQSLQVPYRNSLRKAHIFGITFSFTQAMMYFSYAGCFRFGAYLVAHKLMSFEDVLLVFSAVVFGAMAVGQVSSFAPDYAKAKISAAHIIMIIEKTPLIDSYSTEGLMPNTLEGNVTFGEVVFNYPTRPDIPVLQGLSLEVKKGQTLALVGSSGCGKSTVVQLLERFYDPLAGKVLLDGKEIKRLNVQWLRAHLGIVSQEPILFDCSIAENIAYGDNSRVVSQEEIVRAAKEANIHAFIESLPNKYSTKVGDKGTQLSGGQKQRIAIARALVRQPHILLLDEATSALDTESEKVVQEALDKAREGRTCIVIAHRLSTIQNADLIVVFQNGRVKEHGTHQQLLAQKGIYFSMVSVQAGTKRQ

Compound: CCN(CCO)CCCC(C)Nc1ccnc2cc(Cl)ccc12 (centres unmarked) [hydroxychloroquine]
blood concentrations at steady-state ([1]; 400 mg/day): up to 9 µM
volume of distribution ([1]; in blood): 5522 L
volume of distribution ([1]; in plasma): 44,257 L
concentration within lysosomes at steady-state (postulated) ([1]; lysosomes): 80000 µM
average intracellular concentration at steady-state (postulated) ([1]; tissue/cells): 1 mM
CYP1A2 mRNA expression [2]: no significant effect
OATP2B1 inhibition [3]: about 20%
OATP1B3 inhibition [4]: about 20%
OATP2B1 inhibition ([5]; 0.1–100 µM, 1 µM DBF uptake, 10 min): did not inhibit
effect on intracellular calcein fluorescence (P-gp inhibition) [6]: did not affect intracellular calcein fluorescence
inhibition of organic cation transporters (OCTs) [7]: no inhibition
OATP1A2 inhibition [8]: competitive inhibitor
ABCB1 mRNA expression [9]: no significant effect
concentrations at which intracellular calcein fluorescence was increased (weak P-gp inhibition) [10]: higher than 10 µM
OATP1B3 inhibition [11, 27]: did not inhibit
IC50 [12]: 88 ± 9 µM
IC50 ([12]; with FTC, concentration not given, MDCKII-BCRP + FTC): 92 ± 5 µM
BCRP substrate characteristics [13]: not transported by BCRP
toxic effects (LDH release) [14]: no toxic effects
IC50 [15]: 89 ± 12 µM
CYP1A1 mRNA expression [16]: no significant effect
ABCG2 mRNA expression [17]: no significant effect
IC20 [18]: 22.5 ± 7.3 µM
OATP1B1 inhibition [19, 27]: did not inhibit
effect on digoxin plasma concentrations during concurrent therapy [20]: increased plasma concentrations of digoxin
inhibition of organic anion transporters (OATs) [21]: weak inhibition
IC50 ([22]; LLC-PK1, LLC-PK1): 82 ± 10 µM
IC50 ([22]; LLC-PK1, LLC-PK1 + LY335979 (P-gp inhibitor)): 93 ± 2 µM
P-gp substrate characteristics [23]: substrate of the efflux transporter P-gp
IC50 [24]: 427 ± 16 µM
IC50 ([24]; with LY335979 (zosuquidar), concentration not given, L-MDR1 + LY335979 (P-gp inhibitor)): 90 ± 1 µM
inhibition of organic cation/carnitine transporters (OCTNs) [25]: no inhibition
CYP3A4 mRNA expression [26]: no significant effect

inhibition at 10 min, 1 mM ([5]; human, probe DBF (1 µM), 1 mM, positive control): 70%
Compound: C[C@@H]1O[C@@H](O[C@H]2[C@H](Oc3cc(O)c4c(c3)O[C@H](c3ccc(O)cc3)CC4=O)O[C@H](CO)[C@@H](O)[C@@H]2O)[C@H](O)[C@H](O)[C@H]1O [naringin]

CYP1A2 mRNA expression [2]: significantly up-regulated
CYP1A1 mRNA expression [16]: significantly up-regulated
Compound: COc1ccc2[nH]c([S+]([O-])Cc3ncc(C)c(OC)c3C)nc2c1 (centres unmarked) [omeprazole]
ABCG2 mRNA expression [17]: significantly up-regulated

Compound: CO[C@H]1/C=C/O[C@@]2(C)Oc3c(C)c(O)c4c(O)c(c(/C=N/N5CCN(C)CC5)c(O)c4c3C2=O)NC(=O)/C(C)=C\C=C\[C@H](C)[C@H](O)[C@@H](C)[C@@H](O)[C@@H](C)[C@H](OC(C)=O)[C@@H]1C [rifampicin]
ABCB1 mRNA expression [9]: significantly up-regulated
inhibition at 10 min, 20 µM ([11]; human, HEK293 cells stably transfected with OATP1B3 (HEK-OATP1B3), probe 8-FcA, 20 µM, positive control): 90%
ABCG2 mRNA expression [17]: slightly
inhibition at 10 min, 20 µM ([19]; human, HEK293 cells stably transfected with OATP1B1 (HEK-OATP1B1), probe 8-FcA, 20 µM, positive control): 80%
